Results as given in patent US20240174727A1, “LONG-ACTING NATRIURETIC PEPTIDES AND USES THEREOF” (Eli Lilly and Company, priority 2022, published 2024).
Numbered stars: 1 amine (or outer) side, 2 acyl side, 3 side chain; on linkers, the order of the positions; unused ones are H or OH. Bridge positions count the residues as written; N and C are the ends. Square brackets hold non-standard residues; d marks the D form. * marks the point of attachment. PEG24 = NCCOCCOCCOCCOCCOCCOCCOCCOCCOCCOCCOCCOCCOCCOCCOCCOCCOCCOCCOCCOCCOCCOCCOCCOCCC(=O)O; C20 diacid = O=C(O)CCCCCCCCCCCCCCCCCCC(=O)*; γGlu = O=C(O)[C@H](CCC(=O)[*:2])N[*:1]; 4Pal = N[C@@H](Cc1ccncc1)C(=O)O; AEEA = NCCOCCOCC(=O)O; CH2 = C([*:1])[*:2]

Target: T1, rat NPRA (Rattus norvegicus, UniProt P18910)
T1 construct: Full-Length cDNA Cloning and Generation of Cell Lines Overexpressing Natriuretic Peptide Receptors (NPRs); expressed in transfected cells; host or cells: Jump-in T-Rex HEK293 cells, pJTI R4 CMV-TO MCS pA vector, tetracycline induction
T1 sequence (P18910 29-1057): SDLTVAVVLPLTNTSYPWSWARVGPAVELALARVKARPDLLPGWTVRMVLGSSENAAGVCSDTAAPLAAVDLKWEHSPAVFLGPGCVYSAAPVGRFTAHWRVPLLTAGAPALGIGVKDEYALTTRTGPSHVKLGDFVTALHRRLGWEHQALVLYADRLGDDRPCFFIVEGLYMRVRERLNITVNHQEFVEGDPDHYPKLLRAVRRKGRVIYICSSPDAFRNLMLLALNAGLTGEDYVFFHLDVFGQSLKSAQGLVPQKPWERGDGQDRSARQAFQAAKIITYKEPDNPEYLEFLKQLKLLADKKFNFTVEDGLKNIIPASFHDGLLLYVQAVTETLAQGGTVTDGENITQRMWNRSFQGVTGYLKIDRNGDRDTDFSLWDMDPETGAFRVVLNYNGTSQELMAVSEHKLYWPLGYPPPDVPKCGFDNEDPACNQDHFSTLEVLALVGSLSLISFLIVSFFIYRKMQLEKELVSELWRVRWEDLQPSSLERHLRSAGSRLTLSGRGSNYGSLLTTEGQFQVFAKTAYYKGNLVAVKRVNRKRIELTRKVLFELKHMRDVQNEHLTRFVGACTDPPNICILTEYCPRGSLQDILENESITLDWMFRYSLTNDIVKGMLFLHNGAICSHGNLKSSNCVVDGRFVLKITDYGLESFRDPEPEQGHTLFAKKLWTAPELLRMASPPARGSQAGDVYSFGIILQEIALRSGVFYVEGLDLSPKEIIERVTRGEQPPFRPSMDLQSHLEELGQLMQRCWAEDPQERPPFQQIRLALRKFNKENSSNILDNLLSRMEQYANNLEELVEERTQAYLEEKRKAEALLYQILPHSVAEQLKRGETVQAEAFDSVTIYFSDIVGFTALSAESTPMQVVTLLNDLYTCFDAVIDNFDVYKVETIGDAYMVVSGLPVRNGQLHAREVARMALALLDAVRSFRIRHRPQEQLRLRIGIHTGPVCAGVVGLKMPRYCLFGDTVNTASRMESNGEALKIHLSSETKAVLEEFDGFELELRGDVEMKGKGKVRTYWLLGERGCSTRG
Assay: Rat NPRA cGMP activity assay (HTRF) in HEK293 cells overexpressing NPRA
Type: cell-based
Settings: assay buffer with 0.1% casein, read-out: cGMP Assay (EC50, pM) w/Casein rNPRA
Method: All sequences were verified by full-length sequencing performed by ACGT DNA Sequencing Services (Wheeling, IL). The target cDNA was cloned into pJTI R4 CMV-TO MCS pA vector and then co-transfected with pJT1R4 Int vector into Jump-in™ T-Rex™ HEK293 cells for mammalian inducible expression using Jump-in™ T-Rex™ HEK293 kit and Lipofectamine LTX and Plus Reagent following manufacturer's protocols, as briefly described below.
Jump-in™ T-Rex™ HEK293 cells were plated in a BioCOAT® poly-D-lysine coated 6-well plate (Becton Dickinson, cat no. 354413) at 1 million cells/well in 2 mL culture medium and incubated for 18 h at 37° C. and 5% CO2 to 50-70% confluence. A cDNA mix was made in a 50 mL tube by adding 1.5 μg target cDNA, 1.5 μg pJT1R4 Int vector, 3 μL Plus Reagent, and 300 μL Opti-MEM I sequentially into the tube. A reagent mix was made in a separate 50 mL tube by adding 7.5 μL Lipofectamine LTX into 300 μL Opti-MEM I. The mixtures were incubated for 5 min at room temperature. The cDNA mix was then transferred into the reagent mix, mixed well, and incubated for additional 30 min at room temperature. A 500 μL of cDNA/Lipofectamine complex was then transferred to the wells of the cell plate in which the culture medium was changed to 2 mL of transfection medium containing DMEM with 4.5 g/L D-glucose supplemented with 10% FBS-HI and 20 mM HEPES. Transfected cells were cultured for 48 h in an incubator at 37° C. and 5% CO2. A subclone or pool from each overexpressing cell line was maintained in culture medium with the addition of 2 mg/mL G418 sulfate for the clone selection based on its built-in resistance to G418 sulfate for at least 3 weeks with medium changed every 2-3 days.
NPRs were overexpressed in T-Rex™ HEK293 cells following the induction with 300 ng/mL tetracycline in culture medium for 48 h. Induced cell lines in an exponential growth phase were treated with 0.05% trypsin-EDTA for a few seconds at room temperature, harvested in cell medium containing FBS to neutralize the trypsin, counted, and cryopreserved at the density of 2 million cells/mL in cell preservation solution containing FBS-HI with 5% DMSO. Cryopreserved cells were stored at −80° C. for a few days prior to transferring to a liquid nitrogen tank. Induced cell lines were then used for suspension assays to measure the activity of polypeptides to stimulate cGMP production in cGMP assays or for the preparation of cell membranes to measure the binding activity of polypeptides in competitive radioligand binding assays, as described below.
Test polypeptides were added starting at 10 μM concentration and at 10-fold decreasing concentrations to obtain 8-point concentration-response curves (i.e., 10 μM to 1 pM). The quantity of cGMP generated was detected using HTRF® technology and normalized to maximum amount produced by 100 nM amidated rat ANP and the minimum amount produced by assay buffer. Detailed steps are outlined below.
Stock solutions of test polypeptides (2 mM) dissolved in DMSO were first diluted 100-fold in assay buffer containing HBSS with Ca^2+ and Mg^2+, 5 mM HEPES, 0.5 mM IBMX, and 0.1% BSA or 0.1% casein (pH 7.4). The polypeptides were further serially diluted in 1:10 dilution steps in assay buffer containing 0.1% BSA or 0.1% casein to generate 8-point 2× working stock solutions ranging from 20 μM to […].
A 10 μL cell suspension containing 4000 cells was plated in Costar® half-area white opaque 96-well plates (Corning, cat no. 3693). Then 10 μL of assay buffer (basal activity), 200 nM of amidated rat ANP (maximum activity) or 2× working stock solutions of test polypeptides were transferred into the plate. Final concentration of DMSO in each well was 0.5%. The plate was shaken for 15 sec and then incubated for 40 min at room temperature.
The cGMP generated was measured using cGMP kit following the manufacturer's directions, as described below.

In order of falling EC50:
1. {C20 diacid-γGlu}-EKEKEKG[PEG24]EKPRSSCFGKGIDRIGHQSGLGCPSFRHSGSPSSGAPPPSG-NH2 (linker 15-31 via CH2) [Example 133, HOOC-(CH2)18-CO-(γGlu)-EKEKEKG-PEG24-EKPRSS[CFGKGIDRIGHQSGLGCJPSFRHSGSPSSGAPPPSG-NH2]  581000 pM
2. CC[C@H](C)[C@@H]1NC(=O)[C@H](CCCNC(=N)N)NC(=O)[C@H](CC(=O)O)NC(=O)[C@H]([C@@H](C)CC)NC(=O)[C@H](CCCNC(=N)N)NC(=O)[C@H](CCCCN)NC(=O)CNC(=O)[C@H](Cc2ccccc2)NC(=O)[C@@H](NC(=O)[C@H](CO)NC(=O)[C@H](CO)NC(=O)[C@H](CCCNC(=N)N)NC(=O)CCNC(=O)[C@H](CCCCN)NC(=O)[C@H](CCC(=O)O)NC(=O)COCCOCCNC(=O)COCCOCCNC(=O)COCCOCCNC(=O)COCCOCCNC(=O)COCCOCCNC(=O)COCCOCCNC(=O)COCCOCCNC(=O)COCCOCCNC(=O)CNC(=O)[C@H](CCCCN)NC(=O)[C@H](CCC(=O)O)NC(=O)[C@H](CCCCN)NC(=O)[C@H](CCC(=O)O)NC(=O)[C@H](CCCCN)NC(=O)[C@H](CCC(=O)O)NC(=O)CC[C@H](NC(=O)CCCCCCCCCCCCCCCCCCC(=O)O)C(=O)O)CSCSC[C@@H](C(=O)N2CCC[C@H]2C(=O)N[C@@H](CO)C(=O)N[C@@H](Cc2ccccc2)C(=O)N[C@@H](CCCNC(=N)N)C(=O)N[C@@H](Cc2c[nH]cn2)C(=O)NCC(=O)N[C@@H](CO)C(=O)N2CCC[C@H]2C(=O)N[C@@H](CO)C(=O)N[C@@H](CO)C(=O)NCC(=O)N[C@@H](C)C(=O)N2CCC[C@H]2C(=O)N2CCC[C@H]2C(=O)N2CCC[C@H]2C(=O)N[C@@H](CO)C(N)=O)NC(=O)CNC(=O)[C@H](CC(C)C)NC(=O)CNC(=O)[C@H](CO)NC(=O)[C@H](CCC(N)=O)NC(=O)[C@H](Cc2c[nH]cn2)NC(=O)CNC1=O [Example 120]  25400 pM
3. {C20 diacid-γGlu}-EKEKEKG[AEEA][AEEA][AEEA][AEEA]S[4Pal]RRSSCFGGRIDRIGHQSGLGCPSFRHGGKSSGAPPPS-NH2 (linker 18-34 via CH2) [Example 83]  16700 pM
